Patent US20080176936A1, “Classes of Compounds that Interact with Integrins” (priority 2005, published 2008)

Key:
[1] = target: T1, αVβ3 integrin (Homo sapiens, UniProt P05106+P06756); assay: ELISA: inhibition of binding of αVβ3 integrin (source WM-115 cell line) to coated extracellular matrix protein; details: WM-115 cell line as integrin source
T1 construct: the cell line WM-115 was used as a source of αVβ3 integrin; endogenous in cells; host or cells: WM-115 cell line
Method in brief: (§1)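 Wells were coated with fibrinogen or vitronectin (10 µg/well), and integrin binding was measured by ELISA. αIIbβ3 came from human platelet membranes and αVβ3 from WM-115 cells, each preincubated with compound. Bound integrin was detected with a rabbit anti-β3 antibody, an HRP secondary and a colorimetric readout.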

[2] = target: T2, αllbβ3 integrin (Homo sapiens, UniProt P05106+P08514); assay: ELISA: inhibition of binding of αllbβ3 integrin membrane preparation to coated extracellular matrix protein; details: human platelet membrane preparation
T2 construct: Human platelet membrane preparations were used as a source of αllbβ3 integrin; from tissue; host or cells: human platelets (membrane preparation)
Method in brief: as §1

T1 sequence (P06756 31-889 limits assumed): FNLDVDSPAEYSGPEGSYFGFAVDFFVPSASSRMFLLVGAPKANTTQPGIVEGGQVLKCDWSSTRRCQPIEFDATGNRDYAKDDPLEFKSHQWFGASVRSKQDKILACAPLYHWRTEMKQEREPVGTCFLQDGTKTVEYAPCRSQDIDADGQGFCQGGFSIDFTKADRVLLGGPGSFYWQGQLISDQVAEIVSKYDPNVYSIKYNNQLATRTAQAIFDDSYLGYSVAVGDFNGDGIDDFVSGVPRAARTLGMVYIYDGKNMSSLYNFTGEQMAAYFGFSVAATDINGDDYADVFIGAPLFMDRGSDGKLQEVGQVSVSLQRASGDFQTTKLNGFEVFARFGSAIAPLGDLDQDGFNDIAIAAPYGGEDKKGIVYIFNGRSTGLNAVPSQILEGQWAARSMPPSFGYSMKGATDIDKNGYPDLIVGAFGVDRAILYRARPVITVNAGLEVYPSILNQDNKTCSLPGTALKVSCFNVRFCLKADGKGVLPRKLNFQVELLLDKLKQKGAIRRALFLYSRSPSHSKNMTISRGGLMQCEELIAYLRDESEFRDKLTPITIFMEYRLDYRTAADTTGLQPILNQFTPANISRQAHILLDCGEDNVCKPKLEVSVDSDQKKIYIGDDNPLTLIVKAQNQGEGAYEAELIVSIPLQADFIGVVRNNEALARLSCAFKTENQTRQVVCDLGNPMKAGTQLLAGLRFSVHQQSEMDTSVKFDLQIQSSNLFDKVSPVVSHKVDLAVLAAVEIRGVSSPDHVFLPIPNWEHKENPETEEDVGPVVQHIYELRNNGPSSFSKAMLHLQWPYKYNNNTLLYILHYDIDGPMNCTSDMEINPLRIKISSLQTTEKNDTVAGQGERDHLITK
T1 sequence (P06756 891-1048 partner limits assumed): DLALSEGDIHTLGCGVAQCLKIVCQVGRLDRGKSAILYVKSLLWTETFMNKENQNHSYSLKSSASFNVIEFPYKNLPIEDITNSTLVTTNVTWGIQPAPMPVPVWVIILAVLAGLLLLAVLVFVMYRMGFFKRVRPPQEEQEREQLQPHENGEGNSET
T1 sequence (P05106 27-788): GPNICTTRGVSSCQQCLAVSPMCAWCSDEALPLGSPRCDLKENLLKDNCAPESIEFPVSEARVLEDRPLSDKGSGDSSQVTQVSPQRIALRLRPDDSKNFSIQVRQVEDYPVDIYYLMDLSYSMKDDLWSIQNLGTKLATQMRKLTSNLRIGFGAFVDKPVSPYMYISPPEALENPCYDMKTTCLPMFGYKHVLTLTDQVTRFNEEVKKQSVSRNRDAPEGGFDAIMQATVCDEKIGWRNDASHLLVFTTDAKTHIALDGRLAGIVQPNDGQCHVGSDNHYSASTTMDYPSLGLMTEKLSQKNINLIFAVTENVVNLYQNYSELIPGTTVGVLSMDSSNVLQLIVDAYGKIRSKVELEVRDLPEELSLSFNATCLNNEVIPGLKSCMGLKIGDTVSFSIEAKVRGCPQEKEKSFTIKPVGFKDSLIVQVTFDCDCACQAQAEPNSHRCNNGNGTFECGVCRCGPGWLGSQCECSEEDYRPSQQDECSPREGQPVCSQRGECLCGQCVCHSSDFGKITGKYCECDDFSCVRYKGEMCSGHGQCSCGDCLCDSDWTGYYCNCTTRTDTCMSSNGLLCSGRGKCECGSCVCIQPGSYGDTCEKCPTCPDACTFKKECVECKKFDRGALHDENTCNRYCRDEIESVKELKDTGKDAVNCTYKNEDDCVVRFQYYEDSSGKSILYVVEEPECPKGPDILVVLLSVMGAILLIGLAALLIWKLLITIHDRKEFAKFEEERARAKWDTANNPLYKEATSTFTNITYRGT
T2 sequence (P08514 32-887 limits assumed): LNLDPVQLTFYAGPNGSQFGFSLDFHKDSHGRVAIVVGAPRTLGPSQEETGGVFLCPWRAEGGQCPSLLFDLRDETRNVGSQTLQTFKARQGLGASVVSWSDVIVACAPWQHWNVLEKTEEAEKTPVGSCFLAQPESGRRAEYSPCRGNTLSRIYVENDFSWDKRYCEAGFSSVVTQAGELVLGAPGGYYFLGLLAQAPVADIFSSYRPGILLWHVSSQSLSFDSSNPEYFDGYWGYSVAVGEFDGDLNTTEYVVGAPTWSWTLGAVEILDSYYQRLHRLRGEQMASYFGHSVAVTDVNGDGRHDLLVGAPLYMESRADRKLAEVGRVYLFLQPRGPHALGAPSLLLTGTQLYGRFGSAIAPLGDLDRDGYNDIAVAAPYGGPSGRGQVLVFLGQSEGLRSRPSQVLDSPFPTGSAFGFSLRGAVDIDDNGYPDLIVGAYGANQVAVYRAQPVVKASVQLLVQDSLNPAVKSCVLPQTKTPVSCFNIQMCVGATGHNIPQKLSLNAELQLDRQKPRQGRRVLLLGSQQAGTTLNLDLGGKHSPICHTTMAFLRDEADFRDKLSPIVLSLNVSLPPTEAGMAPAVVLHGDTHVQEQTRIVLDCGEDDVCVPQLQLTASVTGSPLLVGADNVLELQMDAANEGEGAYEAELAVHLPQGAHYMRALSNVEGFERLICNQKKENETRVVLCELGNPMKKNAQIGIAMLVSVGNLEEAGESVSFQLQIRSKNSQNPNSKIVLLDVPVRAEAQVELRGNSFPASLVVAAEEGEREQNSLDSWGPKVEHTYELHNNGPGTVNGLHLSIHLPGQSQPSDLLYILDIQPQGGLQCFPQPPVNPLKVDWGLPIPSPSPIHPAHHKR
T2 sequence (P08514 891-1039 partner limits assumed): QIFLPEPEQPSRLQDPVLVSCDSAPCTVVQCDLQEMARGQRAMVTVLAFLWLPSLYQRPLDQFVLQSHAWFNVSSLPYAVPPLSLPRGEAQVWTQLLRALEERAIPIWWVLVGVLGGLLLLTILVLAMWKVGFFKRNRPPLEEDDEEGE
T2 sequence (P05106 27-788): as the sequence (P05106 27-788) above

| SMILES | INHIBITION 250 uM RECEPTOR aVb3 SUBSTRATE FIBRINOGEN [1] | INHIBITION @ 250 uM RECEPTOR allBb3 SUBSTRATE FIBRINOGEN [2] | INHIBITION 250 uM RECEPTOR allBb3 SUBSTRATE VITRONECTIN [2] |
| --- | --- | --- | --- |
| Nc1cccc(COC2C(O)C(COCc3ccc(Br)cc3)OC(O)C2NC(=O)c2ccc(C(=O)O)cc2)c1 (single isomer, unassigned) [Compound 74] | − (0% to 35% inhibition at 250 micromolar) | − (0% to 35% inhibition at 250 micromolar) | +++ (81% to 100% inhibition at 250 micromolar) |
| CCC(=O)NC1C(OCc2ccccc2)OC(COCc2ccc(C(=O)O)cc2)C(O)C1OCc1cccc(N)c1 (single isomer, unassigned) [Compound 111] | − (0% to 35% inhibition at 250 micromolar) | − (0% to 35% inhibition at 250 micromolar) | +++ (81% to 100% inhibition at 250 micromolar) |
| CCOC1O[C@H](COCc2cccc(N)c2)[C@@H](O)[C@H](OCc2ccc(Br)cc2)[C@H]1NC(=O)CCC(=O)O (single isomer, unassigned) [Compound 44] | + (36% to 60% inhibition at 250 micromolar) | ++ (61% to 80% inhibition at 250 micromolar) | − (0% to 35% inhibition at 250 micromolar) |
| Nc1cccc(COCC2OC(O)C(NC(=O)c3ccc(Cl)cc3)C(OCc3ccc(C(=O)O)cc3)C2O)c1 (single isomer, unassigned) [Compound 66] | + (36% to 60% inhibition at 250 micromolar) | + (36% to 60% inhibition at 250 micromolar) | +++ (81% to 100% inhibition at 250 micromolar) |
| Nc1cccc(COC2C(O)C(COCc3ccc(Br)cc3)OC(O)C2NC(=O)c2ccc(C(=O)O)cc2)c1 (single isomer, unassigned) [Compound 75] | − (0% to 35% inhibition at 250 micromolar) | + (36% to 60% inhibition at 250 micromolar) | +++ (81% to 100% inhibition at 250 micromolar) |
| CCC(=O)NC1C(OCc2ccccc2)OC(COCC(=O)O)C(O)C1OCc1cccc(N)c1 (single isomer, unassigned) [Compound 110] | − (0% to 35% inhibition at 250 micromolar) | − (0% to 35% inhibition at 250 micromolar) | +++ (81% to 100% inhibition at 250 micromolar) |
| COC1OC(COCC(=O)O)C(O)C(OCc2cccc(N)c2)C1NC(=O)c1ccccc1 (single isomer, unassigned) [Compound 27] | +++ (81% to 100% inhibition at 250 micromolar) | ++ (61% to 80% inhibition at 250 micromolar) | +++ (81% to 100% inhibition at 250 micromolar) |
| CCOC1C(O)C(COCc2ccc(C(=O)O)cc2)OC(OCc2ccccc2)C1NC(=O)CCNC(=N)N (single isomer, unassigned) [Compound 87] | − (0% to 35% inhibition at 250 micromolar) | − (0% to 35% inhibition at 250 micromolar) | +++ (81% to 100% inhibition at 250 micromolar) |
| COC1OC(COCC(=O)O)C(O)C(OCc2ccccc2)C1NC(=O)c1cc(N)cc(N)c1 (single isomer, unassigned) [Compound 130] | − (0% to 35% inhibition at 250 micromolar) | − (0% to 35% inhibition at 250 micromolar) | +++ (81% to 100% inhibition at 250 micromolar) |
| CCOC1OC(COCC(=O)O)C(O)C(OCc2ccccc2)C1NC(=O)CCNC(=N)N (single isomer, unassigned) [Compound 122] | − (0% to 35% inhibition at 250 micromolar) | ++ (61% to 80% inhibition at 250 micromolar) | ++ (61% to 80% inhibition at 250 micromolar) |
| COCC1OC(OCc2ccccc2)C(NC(=O)CCNC(=N)N)C(OCc2ccc(C(=O)O)cc2)C1O (single isomer, unassigned) [Compound 97] | − (0% to 35% inhibition at 250 micromolar) | − (0% to 35% inhibition at 250 micromolar) | − (0% to 35% inhibition at 250 micromolar) |
| COC1OC(COCC(=O)O)C(O)C(OCc2ccccc2)C1NC(=O)C1CCNCC1 (single isomer, unassigned) [Compound 134] | − (0% to 35% inhibition at 250 micromolar) | +++ (81% to 100% inhibition at 250 micromolar) | +++ (81% to 100% inhibition at 250 micromolar) |
| COC1OC(COCc2ccc(Br)cc2)C(O)C(OCc2ccc(C(=O)O)cc2)C1NC(=O)CCNC(=N)N (single isomer, unassigned) [Compound 16] | ++ (61% to 80% inhibition at 250 micromolar) | + (36% to 60% inhibition at 250 micromolar) | +++ (81% to 100% inhibition at 250 micromolar) |
| Nc1cccc(COC2C(O)C(COCc3ccccc3)OC(O)C2NC(=O)CCC(=O)O)c1 (single isomer, unassigned) [Compound 22] | + (36% to 60% inhibition at 250 micromolar) | + (36% to 60% inhibition at 250 micromolar) | + (36% to 60% inhibition at 250 micromolar) |
| CCOCC1OC(OCc2ccccc2)C(NC(=O)CCNC(=N)N)C(OCC(=O)O)C1O (single isomer, unassigned) [Compound 93] | +++ (81% to 100% inhibition at 250 micromolar) | − (0% to 35% inhibition at 250 micromolar) | +++ (81% to 100% inhibition at 250 micromolar) |
| COC1OC(COCc2ccc(Br)cc2)C(O)C(OCC(=O)O)C1NC(=O)c1cccc(N)c1 (single isomer, unassigned) [Compound 7] | + (36% to 60% inhibition at 250 micromolar) | + (36% to 60% inhibition at 250 micromolar) | +++ (81% to 100% inhibition at 250 micromolar) |
| COC1OC(COCC(=O)O)C(O)C(OCc2ccccc2)C1NC(=O)CCCNC(=N)N (single isomer, unassigned) [Compound 125] | + (36% to 60% inhibition at 250 micromolar) | + (36% to 60% inhibition at 250 micromolar) | +++ (81% to 100% inhibition at 250 micromolar) |
| Nc1cccc(COC2C(O)C(COCC(=O)O)OC(O)C2NC(=O)c2ccccc2)c1 (single isomer, unassigned) [Compound 29] | +++ (81% to 100% inhibition at 250 micromolar) | ++ (61% to 80% inhibition at 250 micromolar) | +++ (81% to 100% inhibition at 250 micromolar) |
| COCC1OC(OCc2ccccc2)C(NC(=O)CCNC(=N)N)C(OCc2ccc(C(=O)O)cc2)C1O (single isomer, unassigned) [Compound 98] | − (0% to 35% inhibition at 250 micromolar) | − (0% to 35% inhibition at 250 micromolar) | +++ (81% to 100% inhibition at 250 micromolar) |
| COC1OC(COCc2ccccc2)C(O)C(OCc2ccc(C(=O)O)cc2)C1NC(=O)CCNC(=N)N (single isomer, unassigned) [Compound 12] | − (0% to 35% inhibition at 250 micromolar) | ++ (61% to 80% inhibition at 250 micromolar) | ++ (61% to 80% inhibition at 250 micromolar) |
| Nc1cccc(C(=O)N[C@H]2C(O)O[C@H](COCc3ccc(C(=O)O)cc3)[C@@H](O)[C@@H]2OCc2ccc(Br)cc2)c1 (single isomer, unassigned) [Compound 42] | − (0% to 35% inhibition at 250 micromolar) | + (36% to 60% inhibition at 250 micromolar) | +++ (81% to 100% inhibition at 250 micromolar) |
| COC1O[C@H](COCc2ccc(C(=O)O)cc2)[C@@H](O)[C@H](OCc2cccc(N)c2)[C@H]1NC(=O)c1ccc(Cl)cc1 (single isomer, unassigned) [Compound 31] | +++ (81% to 100% inhibition at 250 micromolar) | +++ (81% to 100% inhibition at 250 micromolar) | +++ (81% to 100% inhibition at 250 micromolar) |
